Data reported in patent publication US20250326748A1, “COMPOUNDS AND METHODS FOR MODULATING SPLICING” (REMIX THERAPEUTICS INC., priority 2022, published 2025).
Counter-ions that a name gives are not always drawn. Like-named read-outs stand apart in the source and are kept apart here.

Legend:
Format in all cases: cell-based, human
[1] = system: HiBiT-tagged HTT protein; assay: HiBiT protein abundance assay, HTT (K562 HiBiT knock-in); settings: HiBiT knock-in cells, 24 hours
Description: Compounds described herein were used to screen for effects on quantitative protein abundance using a HiBit assay system (Promega). Quantitative protein abundance was determined by measuring the protein levels of HiBit-tagged protein targets expressed in cell culture via luminescence using the Nano-Glo HiBiT Lytic Detection System, which uses a split complementation assay format to reconstitute NanoBiT enzyme to generate a luminescent signal. A protein abundance assay was developed such that endogenous protein targets could be modified with the HiBiT peptide tag and their abundance could be assessed after compound treatment. Briefly, K562 cell lines containing a HiBiT-modification were treated with various compounds described herein (e.g., compounds of Formulas (I), or (II)). After treatment for 24 hours, the protein abundance of a specific target was determined by measuring luminescence.
• Promega Nano-Glo HiBiT Lytic Detection System (cat #N3030) • Corning 384-well TC-treated microplates (cat #3570)
Cells were maintained in IMDM with 10% FBS. Before the assay, cells were diluted with […] growth media (IMDM+1% FBS media) and were seeded in a 384-well plate at a density of 10000 cells/well (for each cell line listed in Table 6). Each compound was prepared as a 10-point 3-old serial dilution in DMSO with the top dose at a final concentration of 10 μM in the well. Unmodified K562 cells were added at the previously specified density with DMSO to serve as an assay baseline and positive control (PC) and DMSO only with the respective modified cell lines was added to the negative control (NC) columns. Final DMSO concentration was kept at or below 0.25%. Treated cell plates were placed in an incubator at 37° C. with 5% CO2 for 24 hours. After 24 hours, 25 μL of Complete HiBit Lytic reagent was added to each well at room temperature (e.g. one plate requiring 10 ml Lytic Buffer, 100 μL LgBiT Protein, 200 μL Lytic Substrate), shaken for 5 minutes at 600 RPM, then left to sit for 10 minutes for signal to stabilize before reading on a Spark Cyto plate reader (Tecan) with a 500 ms measurement time.
To determine compound effects on protein abundance of each target in Table 6, the percent response for each respective cell line was calculated at each compound concentration as follows:
For the normalized response at each concentration, a four-parameter logistical regression was fit to the data and the response was interpolated at the 50% value to determine a concentration for protein abundance at 50% (IC50) the untreated control.

[2] = system: SMN2 mRNA; assay: Splicing RT-qPCR panel, SMN2 canonical junction (CJ) mRNA; settings: Homo sapiens, read-out: SMN2 CJ (decrease in CJ mRNA levels, IC50)
Summary of the method: (§1)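 A673 cells (DMEM, 10% FBS) or K562 cells (IMDM, 10% FBS) treated 24 h at 37 °C with an 11-point 3-fold dilution, top 10 uM, DMSO ≤0.25%. Canonical-junction mRNA quantified in lysates by RT-qPCR, normalised to GAPDH, GUSB or PPIA and to DMSO (2^−ΔΔCt), then converted to % response.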

[3] = system: Target C mRNA; assay: Splicing RT-qPCR panel, Target C canonical junction (CJ) mRNA; settings: read-out: Target C CJ (decrease in CJ mRNA levels, IC50)
Summary of the method: as §1

| IC50 [1] [nM] | IC50 [2] [nM] | IC50 ([3]; Homo sapiens) [nM] | IC50 [3] [nM] | SMILES |
| --- | --- | --- | --- | --- |
| 1000 to 10000 | < 100 | 1000 to 10000 |  | CN[C@H]1CN(c2cnc3nc(-c4cc5cn(C)nc5c(C)c4O)ccc3c2)C[C@@H]1F (single isomer, unassigned) [Compound 131] |
| 1000 to 10000 | 100 to 1000 | > 10000 |  | Cc1cn2cc(-c3ccc4cc(N5C[C@@H](C)N[C@@H](C)C5)cnc4n3)cc(F)c2n1 [Compound 350] |
| 100 to 1000 | < 100 | 1000 to 10000 |  | CN[C@@H]1CCN(c2cnc3nc(-c4cc(C)c5nc(C)cn5n4)ccc3c2)C1 [Compound 117] |
| 100 to 1000 | > 10000 | > 10000 |  | Cn1cc2cc(-c3cnc4nc(N5CCC(NC(C)(C)C)C5)ccc4c3)c(O)cc2n1 (stereo not shown) [Compound 133, 5-{7-[3-(tert-butylamino)pyrrolidin-1-yl]-1,8-naphthyridin-3-yl}-2-methylindazol-6-ol] |
| 100 to 1000 | < 100 | 1000 to 10000 |  | Cn1cc2cc(-c3ccc4cc(N5CC[C@H](NCC6CC6)C5)cnc4n3)c(O)cc2n1 [Compound 314] |
| < 100 | < 100 | 100 to 1000 |  | CCN[C@@H]1CCN(c2cnc3nc(-c4cc5cn(C)nc5c(C)c4O)ccc3c2)C1 [Compound 124] |
| 100 to 1000 |  | 1000 to 10000 |  | Cc1c(O)c(-c2cc(Cl)c3cc(N4CCNC5(CC5)C4)cnc3n2)cc2cn(C)nc12 [Compound 381] |
| 100 to 1000 | < 100 | > 10000 |  | CN[C@H]1CCN(c2cnc3nc(-c4cc5cn(C)nc5c(C)c4O)ncc3c2)C1 [Compound 120] |
| 100 to 1000 | < 100 | 1000 to 10000 |  | Cc1c(O)c(-c2cc(Cl)c3cc(N(C)[C@H]4CCNC4)cnc3n2)cc2cn(C)nc12 [Compound 294] |
| 100 to 1000 | < 100 | 100 to 1000 |  | Cc1c(O)c(-c2cc(Cl)c3cc(N4CCC(N(C)C)C4)cnc3n2)cc2cn(C)nc12 (stereo not shown) [Compound 143, 5-{4-chloro-6-[3-(dimethylamino)357pyrrolidine-1-yl]-1,8-naphthyridin-2-yl}-2,7-dimethylindazol-6-ol] |
| < 100 | < 100 | 100 to 1000 |  | CN[C@H]1CCN(c2cnc3nc(-c4cc(C)c5nc(C)cn5n4)ccc3c2)C1 [Compound 116] |
| 100 to 1000 | < 100 | < 100 |  | CN[C@@H]1CCN(c2cnc3nc(-c4cc5cn(C)nc5c(C)c4O)ccc3c2)C1 [Compound 112] |
| 100 to 1000 | < 100 | 1000 to 10000 |  | Cc1cn2nc(-c3cc(Cl)c4cc(N5CCC(N(C)C)CC5)cnc4n3)cc(C)c2n1 [Compound 348] |
| < 100 | < 100 | < 100 |  | C[C@H]1CN(c2cnc3nc(-c4cc5cn(C)nc5c(F)c4O)cc(Cl)c3c2)C[C@H](C)N1 [Compound 280] |
| 100 to 1000 | < 100 | 100 to 1000 |  | Cn1cc2cc(-c3ccc4cc(N5CCC(NC(C)(C)C)C5)cnc4n3)c(O)cc2n1 (stereo not shown) [Compound 134, 5-{6-[3-(tert-butylamino)pyrrolidin-1-yl]-1,8-naphthyridin-2-yl}-2-methylindazol-6-ol hydrochloride] |
| 100 to 1000 | < 100 | 1000 to 10000 |  | Cc1cn2cc(-c3cc(Cl)c4cc(N5CCNCC5)cnc4n3)cc(F)c2n1 [Compound 153, 4-chloro-2-{8-fluoro-2-methylimidazo[1,2-a]pyridin-6-yl}-6-(piperazin-1-yl)-1,8-naphthyridine] |
| < 100 | < 100 | 100 to 1000 |  | CN[C@H]1CN(c2cnc3nc(-c4cc5cn(C)nc5c(C)c4O)ccc3c2)C[C@@H]1C [Compound 127, 2,7-dimethyl-5-{6-[(3S,4R)-3-methyl-4-(methylamino)384pyrrolidine-1-yl]-1,8-naphthyridin-2-yl}indazol-6-ol] |

| IC50 [1] [nM] | IC50 [2] [nM] | IC50 ([3]; Homo sapiens) [nM] | IC50 [3] [nM] | SMILES |
| --- | --- | --- | --- | --- |
| 100 to 1000 | < 100 | 1000 to 10000 |  | CCN[C@H]1CCN(c2cnc3nc(-c4cc5cn(C)nc5cc4O)ccc3c2)C1 [Compound 311, 5-{6-[(3S)-3-(ethylamino)pyrrolidin-1-yl]-1,8-naphthyridin-2-yl}-2-methylindazol-6-ol hydrochloride] |
| < 100 | < 100 | 100 to 1000 |  | Cc1c(O)c(-c2ccc3cc(N4CCC(NCC5CC5)C4)cnc3n2)cc2cn(C)nc12 (stereo in doubt) [Compound 119, 5-{6-[(3R)-3-[(cyclopropylmethyl)amino]pyrrolidin-1-yl]-1,8-naphthyridin-2-yl}-2,7-dimethylindazol-6-ol] |
| 100 to 1000 |  | 1000 to 10000 |  | Cc1cn2cc(-c3cc(Cl)c4cc(N5C[C@H](C)N[C@@H](C)C5)cnc4n3)cc(F)c2n1 [Compound 298] |
| 100 to 1000 | < 100 | 1000 to 10000 |  | Cc1cc(-c2cc3cn(C)nc3c(C)c2O)nc2ncc(N3CCNCC3)cc12 [Compound 151, 2,7-dimethyl-5-[4-methyl-6-(piperazin-1-yl)-1,8-naphthyridin-2-yl]indazol-6-ol] |
| 100 to 1000 | < 100 | 100 to 1000 |  | CN[C@@H]1CN(c2cnc3nc(-c4cc5cn(C)nc5c(C)c4O)ccc3c2)C[C@@H]1F [Compound 132, 5-{6-[(3S,4R)-3-fluoro-4-(methylamino)pyrrolidin-1-yl]-1,8-naphthyridin-2-yl}-2,7-dimethylindazol-6-ol] |
| < 100 | < 100 | 100 to 1000 |  | Cc1c(O)c(-c2ccc3cc(N4CC[C@@H](NCC5CC5)C4)cnc3n2)cc2cn(C)nc12 [Compound 118] |
| 100 to 1000 | < 100 | 100 to 1000 |  | CN[C@@H]1CN(c2cnc3nc(-c4cc5cn(C)nc5c(C)c4O)ccc3c2)C[C@H]1F (single isomer, unassigned) [Compound 130] |
| < 100 | < 100 | < 100 |  | CN[C@@H]1CCN(c2cnc3nc(-c4cc5cn(C)nc5c(C)c4O)cc(Cl)c3c2)C1 [Compound 286, 5-{4-chloro-6-[(3R)-3-(methylamino)pyrrolidin-1-yl]-1,8-naphthyridin-2-yl}-2,7-dimethylindazol-6-ol hydrochloride] |
| 100 to 1000 | < 100 |  | 1000 to 10000 | Cc1c(O)c(-c2cc(Cl)c3cc(N4C[C@@H](C)N[C@@H](C)C4)cnc3n2)cc2cn(C)nc12 [Compound 149] |
| < 100 | < 100 | 100 to 1000 |  | CNC1CCN(c2cnc3nc(-c4cc5cn(C)nc5c(C)c4O)cc(Cl)c3c2)C1 (stereo not shown) [Compound 142, 5-{4-chloro-6-[3-(methylamino)351pyrrolidine-1-yl]-1,8-naphthyridin-2-yl}-2,7-dimethylindazol-6-ol] |
| 100 to 1000 | < 100 | 1000 to 10000 |  | Cn1cc2cc(-c3cc(Cl)c4cc(N5CCNC6(CC6)C5)cnc4n3)c(O)c(F)c2n1 [Compound 274] |
| 100 to 1000 | < 100 | 1000 to 10000 |  | C[C@@H]1CN(c2cnc3nc(-c4cc5cn(C)nc5c(F)c4O)cc(Cl)c3c2)C[C@H](C)N1 [Compound 279] |
| 100 to 1000 | < 100 | 100 to 1000 |  | CN[C@@H]1CN(c2cnc3nc(-c4cc5cn(C)nc5c(C)c4O)ccc3c2)C[C@@H]1C [Compound 128] |
| 100 to 1000 |  | 1000 to 10000 |  | Cc1cn2nc(-c3cc(Cl)c4cc(N5C[C@H](C)N[C@@H](C)C5)cnc4n3)cc(C)c2n1 [Compound 336] |
| 100 to 1000 |  | 1000 to 10000 |  | Cc1cn2nc(-c3ccc4c(Cl)c(N5C[C@H](C)N[C@@H](C)C5)cnc4n3)cc(C)c2n1 [Compound 393, 5-chloro-2-{2,8-dimethylimidazo[1,2-b]pyridazin-6-yl}-6-[(3S,5S)-3,5-dimethylpiperazin-1-yl]-1,8-naphthyridine] |
| 100 to 1000 | < 100 |  |  | CNC1CCN(c2cnc3nc(-c4cc5cn(C)nc5c(C)c4O)ncc3c2)C1 (stereo not shown) [Compound 104, 2,7-dimethyl-5-{6-[3-(methylamino)pyrrolidin-1-yl]pyrido[2,3-d]pyrimidin-2-yl}indazol-6-ol] |
